Measured values taken from patent US20090138988A1, “MODIFICATION OF PLANT DISEASE RESISTANCE” (priority 2007, published 2009).

Tested on: P. syringae pv. tabaci
Assay: Squalene complementation of SQS1 RNAi line resistance to nonhost pathogen
Assay type: in vivo, Arabidopsis
Method: Squalene was supplied at the concentration as indicated above each panel when transplanting two-week old seedlings and thereafter watering. P. syringae pv. tabaci was infiltrated into leaves of four-week old plants at 1×10^7 cfu/ml. The inoculated plants were kept at 19-21° C. and covered to keep high humidity. Pictures were taken 3 days post inoculation
It was hypothesized that SQS1 RNAi lines would have less squalene compared to wild-type plants. Arabidopsis has two SQS genes: SQS1 and SQS2. T-DNA knockout lines for SQS2 are not available in SALK or GABI collections. Even though both SQS1 and SQS2 have more than 80% nucleotide identity, in the SQS1 RNAi line, only the transcripts of SQS1 was reduced but not SQS2 (FIG. 10). A brief pathway of sterol biosynthesis in plants and also other pathways that may be affected by silencing of SQS1 are shown in FIG. 11. […] It was therefore shown that squalene plays a critical role in conferring nonhost resistance against certain pathogens, and the role is recoverable in susceptible RNAi lines by squalene dosing.

## CC(C)=CCC/C(C)=C/CC/C(C)=C/CC/C=C(\C)CC/C=C(\C)CCC=C(C)C [squalene]
10 μM squalene fed, P. syringae pv. tabaci 1×10^7 cfu/ml, 3 days post inoculation
  recovery of nonhost resistance of SQS1 RNAi lines: completely recovered resistance phenotype back to wild-type levels
Squalene fed at 1 μM to 10 μM, P. syringae pv. tabaci
  recovery of nonhost resistance of SQS1 RNAi lines: recovered nonhost resistance in a dose dependent manner
